Assay results reported in patent US11084852B2, “Ubiquitin interacting motif peptides as therapeutics” (OKLAHOMA MEDICAL RESEARCH FOUNDATION, priority 2015, dated 2021).
Positions of bridges follow the written chain, without caps; N, C: chain ends. Non-standard residues stand in square brackets, D forms with d. No end group written: not given here.

Key:
[1] = free acid; cited from earlier work
[2] = in vivo; cited from earlier work
ER stress = ER stress and inflammation after IP3R1 downregulation; assay type: cell-based
From the text: FIGS. 22A-D. Downregulation of IP3R1 by epsins augments ER stress-mediated inflammation in Endothelium. (FIG. 22A) Deletion of IP3R1 auguments ER stress mediated by athero-prone substances. (FIG. 22B) Inhibition of ER stress by 4-PBA protected athero-prone substances mediated ER stress due to loss of IP3R1. (FIG. 22C) Loss of epsins auguments NF-kB signaling. (FIG. 22D) NF-kB augmentation can be prevented by ER stress inhibitor 4-PBA.

[3] = HFD-induced obesity model; assay type: in vivo; conditions: i.p., mice fed HFD
From the text: FIGS. 33A-C. […] (FIG. 33A) Male and (FIG. 33B) Female mice, n=8 in each group; P<0.001. (FIG. 33C) Representative image of PBS or AP-UIM peptide administration for 3 months.
The inventors have tested a UIM peptide (AP-UIM) in HFD-induced obesity model.

[4] = tested on: Lewis lung carcinoma (LLC) tumors; experiment: Subcutaneous LLC tumor model; parameters: species or system mice; conditions: mouse, in vivo
From the text: C56BL/6 mice and TRAMP prostate cancer models were obtained from Jackson Laboratory. SCID/NOD immune-deficient mice were purchased from Charles River Labs (Wilmington, Mass.). WT-Flk, EC-iDKO, EC-iDKO-Flk and EC-iDKO-Notch mice were generated by crossing conditional double knockout mice (EC-iDKO) with Flk-1^fl/fl or NICD^LSL mice as described in (FIGS. 13A-D) (Pasula et al., 2012; Tessneer et al., 2014). All animal protocols have been approved by the IACUC in Oklahoma Medical Research Foundation. Animal tumor models were established as follows: • (1) Subcutaneous Tumor Models (LLC, melanoma B16 and glioma U87/SCID): LLC, melanoma and glioma tumor models were established as previously described (Pasula et al., 2012). Synthetic peptides were administered at 10 mg/kg intravenously every second day beginning after small tumors were established (20-50 mm^3; approximately 12 days post implantation). Tumor volumes were monitored every other day until euthanized following IACUC tumor scoring system. • (2) TRAMP Prostate Tumor Model (Transgenic Adenocarcinoma of Mouse Prostate). […] Mortality rates were recorded. Prostate tumors were analyzed by weighing genitourinary tract (GU), H&E staining, IHC, IF staining and Western blotting as previously described (Pasula et al., 2012; Tessneer et al., 2013). Lymph nodes, lung, liver, spleen and bones were similarly analyzed for metastasis. • (3) B16 Melanoma Metastasis Model. […] Mice were sacrificed after 5 weeks and tissues (including lung, liver and lymph nodes, etc.) were harvested and analyzed for metastasis by gross morphology, H&E, IHC or IF staining, as well as Western blotting. • (4) Orthotopical Glioma Tumor Models (U87/SCID and GL261/C56BL/6). […] Tumors were monitored by MRI as previously described (Pasula et al., 2012). […] Tumor volume was analyzed by MRI every other day until the mice died or were euthanized following IACUC tumor scoring system. Mortality rates were recorded. […]

VEGFR2 = target: T1, VEGFR2 (Mus musculus, UniProt P35918); experiment: Biochemical pulldown assay using ex vivo tumors; assay type: binding, mice; conditions: biotinylated peptide, ex vivo LLC or GL261 tumor lysates
T1 construct: from tissue; host or cells: LLC or GL261 glioma subcutaneous tumors from C57BL/6 mice
T1 sequence (P35918 20-1345): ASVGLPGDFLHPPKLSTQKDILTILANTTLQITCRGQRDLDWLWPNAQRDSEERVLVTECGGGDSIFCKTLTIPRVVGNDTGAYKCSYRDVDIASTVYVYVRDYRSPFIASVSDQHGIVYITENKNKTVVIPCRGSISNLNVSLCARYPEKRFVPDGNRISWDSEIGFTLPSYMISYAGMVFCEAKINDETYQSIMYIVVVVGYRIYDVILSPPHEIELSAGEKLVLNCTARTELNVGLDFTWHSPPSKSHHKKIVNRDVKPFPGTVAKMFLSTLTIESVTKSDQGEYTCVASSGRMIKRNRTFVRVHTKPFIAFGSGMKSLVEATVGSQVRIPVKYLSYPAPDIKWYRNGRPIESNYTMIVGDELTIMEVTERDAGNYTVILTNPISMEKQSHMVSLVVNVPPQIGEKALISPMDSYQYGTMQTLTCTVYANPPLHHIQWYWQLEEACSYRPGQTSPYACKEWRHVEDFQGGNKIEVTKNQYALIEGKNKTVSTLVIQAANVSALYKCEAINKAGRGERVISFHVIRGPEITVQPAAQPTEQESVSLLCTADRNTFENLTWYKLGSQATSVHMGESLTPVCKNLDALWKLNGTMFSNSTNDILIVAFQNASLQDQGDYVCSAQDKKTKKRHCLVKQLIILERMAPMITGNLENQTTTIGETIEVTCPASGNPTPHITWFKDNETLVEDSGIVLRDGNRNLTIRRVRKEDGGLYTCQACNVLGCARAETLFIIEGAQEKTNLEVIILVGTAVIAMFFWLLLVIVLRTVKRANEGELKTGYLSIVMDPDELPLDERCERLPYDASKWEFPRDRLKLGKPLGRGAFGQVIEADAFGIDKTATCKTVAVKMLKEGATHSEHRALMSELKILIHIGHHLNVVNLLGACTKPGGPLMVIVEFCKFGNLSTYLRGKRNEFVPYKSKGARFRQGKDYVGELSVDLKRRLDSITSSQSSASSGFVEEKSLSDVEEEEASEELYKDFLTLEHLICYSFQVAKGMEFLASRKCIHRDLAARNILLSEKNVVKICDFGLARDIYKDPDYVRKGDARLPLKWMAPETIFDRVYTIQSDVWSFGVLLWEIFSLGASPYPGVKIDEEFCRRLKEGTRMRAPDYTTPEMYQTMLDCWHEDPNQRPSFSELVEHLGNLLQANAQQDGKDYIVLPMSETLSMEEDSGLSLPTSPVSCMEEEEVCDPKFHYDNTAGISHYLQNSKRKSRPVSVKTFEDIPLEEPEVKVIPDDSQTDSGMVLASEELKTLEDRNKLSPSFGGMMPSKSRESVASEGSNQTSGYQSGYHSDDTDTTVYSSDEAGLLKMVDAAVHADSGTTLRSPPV
Experimental: (§1) (FIGS. 15A and 15C) LLC (FIG. 15A) or Glioma GL261 (FIG. 15C) subcutaneous tumors removed from C57BL/6 mice were homogenized in lysis buffer containing 50 mM Tris-HCl pH 7.5, 150 mM NaCl, 0.05% NP-40, 10% glycerol, 1× cocktail (Roche) and 20 mM NEM (N-ethylmaleimide). Lysate protein concentration was determined by BCA kit (Pierce). 2 mg of total lysate was co-incubated with 50 μg of either biotinylated UPI peptide, UPI mutant (UPI-Mut) peptide or control peptide. Neutri-Avidin beads (Invitrogen) were then added to pulldown biotinylated UPI or control peptide. These beads were subjected to two washes with lysis buffer and two washes with ½ lysis solutions. Afterwards, beads were boiled in 2× loading buffer and the supernatant was used for Western blot analysis of VEGFR2, PDGFR-β, EGFR and FGFR1; (FIGS. 15B and 15D) Quantification of peptide pulldown of VEGFR2 in LLC (FIG. 15B) and Glioma GL261 (FIG. 15D) tumors, n=5; P values are indicated in the figures.
(§2) LLC or GL261 glioma tumors was homogenized in lysis buffer containing 50 mM Tris-HCl pH7.5, 150 mM NaCl, 0.05% NP-40, 10% Glycerol, 1× cocktail, and 20 mM NEM. Protein concentration was determined by BCA kit (Pierce). 0.5-2 mg lysates were co-incubated with 100 μM biotinylated UPI or control peptides, followed by the addition of Neutri-Avidin beads (Invitrogen) for pulldown binding assay. Beads were washed twice with lysis buffer, then twice with 1:1 lysis buffer PBS. Beads were then boiled for 5 min in 2× sample loading buffer. Denatured proteins were subjected to Western blotting using anti-VEGFR2, anti-EGFR, anti-FGFR1 and anti-PDGFR-β antibodies.

FGFR1 = target: T2, FGFR1 (Mus musculus, UniProt P16092); experiment: Biochemical pulldown assay using ex vivo tumors; assay type: binding, mice; conditions: biotinylated peptide, ex vivo tumor lysates
T2 construct: from tissue; host or cells: LLC or GL261 glioma subcutaneous tumors from C57BL/6 mice
T2 sequence (P16092 22-822): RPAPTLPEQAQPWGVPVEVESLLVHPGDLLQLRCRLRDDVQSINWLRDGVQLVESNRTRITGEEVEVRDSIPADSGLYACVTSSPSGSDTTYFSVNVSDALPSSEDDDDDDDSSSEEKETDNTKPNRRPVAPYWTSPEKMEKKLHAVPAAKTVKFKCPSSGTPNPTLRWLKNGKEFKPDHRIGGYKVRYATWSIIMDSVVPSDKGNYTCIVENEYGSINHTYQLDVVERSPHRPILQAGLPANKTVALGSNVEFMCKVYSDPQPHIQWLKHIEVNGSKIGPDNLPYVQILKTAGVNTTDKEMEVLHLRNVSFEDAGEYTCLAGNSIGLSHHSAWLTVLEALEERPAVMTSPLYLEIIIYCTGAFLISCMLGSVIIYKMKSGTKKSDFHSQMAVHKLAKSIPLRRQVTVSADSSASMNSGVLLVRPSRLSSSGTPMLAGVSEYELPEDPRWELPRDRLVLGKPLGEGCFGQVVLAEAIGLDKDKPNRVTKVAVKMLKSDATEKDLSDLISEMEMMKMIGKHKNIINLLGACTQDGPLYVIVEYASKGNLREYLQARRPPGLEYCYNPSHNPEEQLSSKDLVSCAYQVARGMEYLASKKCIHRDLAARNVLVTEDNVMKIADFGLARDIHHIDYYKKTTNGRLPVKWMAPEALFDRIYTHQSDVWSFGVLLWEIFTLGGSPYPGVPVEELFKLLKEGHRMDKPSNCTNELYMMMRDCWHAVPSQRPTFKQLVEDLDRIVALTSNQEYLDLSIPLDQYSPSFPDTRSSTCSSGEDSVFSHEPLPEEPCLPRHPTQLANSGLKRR
Experimental: as §1, §2

PDGFR-β = target: T3, PDGFR-β (Mus musculus, UniProt P05622); experiment: Biochemical pulldown assay using ex vivo tumors; assay type: binding, mice; conditions: biotinylated peptide, ex vivo tumor lysates
T3 construct: from tissue; host or cells: LLC or GL261 glioma subcutaneous tumors from C57BL/6 mice
T3 sequence (P05622 32-1098): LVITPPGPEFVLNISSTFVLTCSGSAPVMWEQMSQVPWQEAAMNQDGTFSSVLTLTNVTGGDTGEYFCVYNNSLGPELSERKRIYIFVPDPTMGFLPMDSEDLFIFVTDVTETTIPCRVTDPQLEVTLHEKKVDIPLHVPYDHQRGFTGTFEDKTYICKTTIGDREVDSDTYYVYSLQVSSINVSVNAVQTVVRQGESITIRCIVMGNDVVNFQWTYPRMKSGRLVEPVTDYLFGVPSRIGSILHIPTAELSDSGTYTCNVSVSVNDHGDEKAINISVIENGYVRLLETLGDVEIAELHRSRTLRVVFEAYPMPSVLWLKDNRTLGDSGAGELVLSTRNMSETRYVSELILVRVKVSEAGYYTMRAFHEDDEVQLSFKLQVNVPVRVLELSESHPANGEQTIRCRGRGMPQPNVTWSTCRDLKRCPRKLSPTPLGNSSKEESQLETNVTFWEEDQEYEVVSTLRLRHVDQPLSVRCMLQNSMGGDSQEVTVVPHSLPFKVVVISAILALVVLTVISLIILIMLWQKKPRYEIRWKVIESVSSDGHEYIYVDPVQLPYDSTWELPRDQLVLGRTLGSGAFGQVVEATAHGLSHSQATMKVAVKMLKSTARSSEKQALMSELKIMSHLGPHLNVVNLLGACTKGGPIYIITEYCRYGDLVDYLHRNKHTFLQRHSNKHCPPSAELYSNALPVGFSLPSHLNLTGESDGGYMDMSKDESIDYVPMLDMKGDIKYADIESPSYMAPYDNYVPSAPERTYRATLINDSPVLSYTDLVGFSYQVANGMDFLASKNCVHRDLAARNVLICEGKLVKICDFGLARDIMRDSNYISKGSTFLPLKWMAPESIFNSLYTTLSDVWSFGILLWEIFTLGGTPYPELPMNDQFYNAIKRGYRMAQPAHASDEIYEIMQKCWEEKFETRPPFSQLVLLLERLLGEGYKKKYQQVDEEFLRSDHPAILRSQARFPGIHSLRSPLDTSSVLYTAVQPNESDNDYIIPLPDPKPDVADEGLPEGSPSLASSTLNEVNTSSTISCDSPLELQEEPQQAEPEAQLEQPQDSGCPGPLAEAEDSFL
Experimental: as §1, §2

EGFR = target: T4, EGFR (Mus musculus, UniProt Q01279); experiment: Biochemical pulldown assay using ex vivo tumors; assay type: binding, mice; conditions: biotinylated peptide, ex vivo tumor lysates
T4 construct: from tissue; host or cells: LLC or GL261 glioma subcutaneous tumors from C57BL/6 mice
Experimental: as §1, §2

In the case of `CC(C)(C)[N+]([O-])=Cc1ccc(S(=O)(=O)O)cc1S(=O)(=O)O` [2,4-ds PBN, 2,4-disulfonyl phenyl-tert-butyl nitrone], the solubility in water [1] is given as “greater than 1 gram/ml”, the “efficacy compared to PBN” value [2] is given as “unexpected increase in efficacy as compared to PBN” and the “toxicity compared to PBN” value [2] is given as “marked and highly significant decrease in toxicity as compared to PBN”.

In the case of `O=C(O)CCCc1ccccc1` [4-PBA], the “ER stress and inflammation” value (ER stress) is reported as “inhibits ER stress and inflammation”.

For “AP-UIM: Antennapedia (penetratin) conjugated to the N-terminus of the epsin UIM peptide, SEQ ID NO: 40 (RQIKIWFQNRRMKWKKSGEEELQLQLALAMSKEE; not fully specified (some residues))”, the body weight gain [3] was “significantly attenuated body weight gain”.

With “UPI-Mut: UPI bearing the Q9A/A13S/K16A triple mutation in the epsin UIM, SEQ ID NO: 43 ([dS]G[dE][dE][dE][dL][dQ][dL][dA][dL][dA][dL][dS][dM][dS][dA][dE][dE][dM]G[dC][dI][dK][dS][dK][dR][dK][dC][dR]G[dD][dK]G[dP][dD][dC]; disulfide 28-36 (inferred); not fully specified)” the “tumor growth in LLC tumor-bearing mice, variant peptides” value [4] was “failed to inhibit tumor growth compared to mice treated with UPI peptide”, the “binding to VEGFR2 in pulldown” value (VEGFR2) was “exhibited reduced binding to VEGFR2” and the “co-precipitation of FGFR1” value (FGFR1) was “neither UPI nor UPI-Mut peptide pulled down”. For the same compound, the “co-precipitation of PDGFR-β” value (PDGFR-β) was “neither UPI nor UPI-Mut peptide pulled down” and the “co-precipitation of EGFR” value (EGFR) was “neither UPI nor UPI-Mut peptide pulled down”.
